Laboratory results as given in article PMC11371790, “Combination of transcriptomic and proteomic approaches helps unravel the mechanisms of luteolin in inducing liver cancer cell death via targeting AKT1 and SRC” (Frontiers in Pharmacology, 2024).

How the values were obtained:
SRC = SRC (Homo sapiens, UniProt P12931); assay: bio-layer interferometry (biotinylated SRC on SSA sensor, Octet K2); format: binding
AKT1 = AKT1 (Homo sapiens, UniProt P31749); assay: bio-layer interferometry (biotinylated active AKT1, Carna […]-101, on SSA sensor, Octet K2); format: binding
AKT1, sequence (P31749 whole entry): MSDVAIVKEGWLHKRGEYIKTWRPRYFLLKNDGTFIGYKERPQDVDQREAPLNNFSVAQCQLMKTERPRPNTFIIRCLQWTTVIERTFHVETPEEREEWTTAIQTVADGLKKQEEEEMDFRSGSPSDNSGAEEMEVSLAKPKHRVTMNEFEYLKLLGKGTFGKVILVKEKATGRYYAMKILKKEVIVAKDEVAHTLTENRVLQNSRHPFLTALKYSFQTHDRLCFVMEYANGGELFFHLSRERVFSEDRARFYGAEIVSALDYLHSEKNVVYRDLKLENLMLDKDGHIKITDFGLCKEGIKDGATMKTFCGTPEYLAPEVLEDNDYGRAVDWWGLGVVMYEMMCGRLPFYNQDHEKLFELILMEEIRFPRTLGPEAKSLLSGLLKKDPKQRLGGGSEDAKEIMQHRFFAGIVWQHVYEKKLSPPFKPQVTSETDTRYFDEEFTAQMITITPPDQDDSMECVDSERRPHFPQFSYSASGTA

SRC, sequence (P12931 2-536): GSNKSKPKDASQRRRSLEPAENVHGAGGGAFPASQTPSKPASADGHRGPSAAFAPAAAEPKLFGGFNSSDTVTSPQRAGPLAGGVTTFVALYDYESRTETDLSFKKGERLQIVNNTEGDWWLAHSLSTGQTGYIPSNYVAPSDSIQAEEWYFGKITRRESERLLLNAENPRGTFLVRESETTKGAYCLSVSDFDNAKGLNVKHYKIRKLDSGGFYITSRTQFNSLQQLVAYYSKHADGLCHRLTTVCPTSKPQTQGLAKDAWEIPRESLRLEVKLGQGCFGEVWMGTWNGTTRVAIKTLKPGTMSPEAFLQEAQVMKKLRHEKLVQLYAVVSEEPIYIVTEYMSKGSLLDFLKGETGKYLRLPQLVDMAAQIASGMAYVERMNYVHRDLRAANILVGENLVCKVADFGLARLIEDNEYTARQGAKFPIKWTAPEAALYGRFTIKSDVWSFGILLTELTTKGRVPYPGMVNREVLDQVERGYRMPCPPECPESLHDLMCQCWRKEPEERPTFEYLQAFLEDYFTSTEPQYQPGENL

## O=c1cc(-c2ccc(O)c(O)c2)oc2cc(O)cc(O)c12 [Luteolin]
SRC
  Kd: 1.7 µM
AKT1
  Kd: 7.86 µM
